From US20260308159A1, “BICYCLIC HETEROARYLAMIDES HAVING GPR68 MODULATING ACTIVITY” (RECURSION PHARMACEUTICALS, INC., priority 2023, published 2026)
pIC50: −log10 of the molar value.

target: T1, human GPR68 (Homo sapiens, UniProt Q15743); test: GPR68 Biochemical Assay (Promega GloSensor cAMP assay, GPR68 antagonism); assay type: cell-based; settings: HEK293T cells transiently expressing hGPR68, antagonism of pH 5.5 stimulated cAMP, 15 min, read-out: hGPR68 IC50
T1 construct: encoding full-length human GPR68 (uniprot ID: Q15743); expressed in transfected cells; host or cells: HEK293T
T1 sequence (Q15743 whole entry): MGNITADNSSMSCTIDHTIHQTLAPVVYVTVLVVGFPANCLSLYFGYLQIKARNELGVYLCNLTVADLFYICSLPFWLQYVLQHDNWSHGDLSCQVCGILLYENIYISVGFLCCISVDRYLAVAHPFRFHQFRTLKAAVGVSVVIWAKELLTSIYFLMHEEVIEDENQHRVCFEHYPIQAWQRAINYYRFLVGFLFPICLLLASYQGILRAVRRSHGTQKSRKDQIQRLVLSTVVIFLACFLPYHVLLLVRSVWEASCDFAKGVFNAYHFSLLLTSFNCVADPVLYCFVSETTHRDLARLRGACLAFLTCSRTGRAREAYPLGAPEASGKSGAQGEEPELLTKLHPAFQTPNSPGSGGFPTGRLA
Method in brief: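 Readout is GloSensor cAMP luminescence after 15 min at room temperature, normalised between pH 5.5 stimulation and pH 8.0 minimum controls; IC50 fitted sigmoidally. Test compounds, up to 50 μM final (9-point half-log, 0.5% DMSO), were co-added with pH 5.5 buffer to HEK293T cells transiently expressing full-length human GPR68 plus GloSensor.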

SMILES | pIC50
COCc1nn2c(C(=O)NC3CCC(F)(F)CC3)ccnc2c1C(N)=O [Compound 80, N7-(4,4-difluorocyclohexyl)-2-(methoxymethyl)pyrazolo[1,5-a]pyrimidine-3,7-dicarboxamide] | > 7.30
COCc1nn2c(C(=O)NC3Cc4cccnc4C3)ccnc2c1C(N)=O (centres unmarked) [Compound 60, N7-(6,7-dihydro-5H-cyclopenta[b]pyridin-6-yl)-2-(methoxymethyl)pyrazolo[1,5-a]pyrimidine-3,7-dicarboxamide] | > 7.30
NC(=O)c1cnn2c(C(=O)NC3Cc4cccc(Cl)c4C3)ccnc12 (centres unmarked) [Compound 4, N7-(4-chloroindan-2-yl)pyrazolo[1,5-a]pyrimidine-3,7-dicarboxamide] | 6.30 to 7.30
COCc1nn2c(C(=O)NC3(C)Cc4ccccc4C3)ccnc2c1C(N)=O [Compound 121, 2-(methoxymethyl)-N7-(2-methylindan-2-yl)pyrazolo[1,5-a]pyrimidine-3,7-dicarboxamide] | 6.30 to 7.30
COCc1nn2c(C(=O)N[C@@H]3CCCc4ccccc43)ccnc2c1C(N)=O [Compound 74, 2-(methoxymethyl)-N7-[(1R)-tetralin-1-yl]pyrazolo[1,5-a]pyrimidine-3,7-dicarboxamide] | > 7.30
O=C(NC1Cc2ccccc2C1)c1cccc2c(-c3ncco3)cnn12 [Compound 31, N-indan-2-yl-3-oxazol-2-yl-pyrazolo[1,5-a]pyridine-7-carboxamide] | 4.30 to 5.30
COCc1nc2c(C(=O)N[C@H]3CCOc4cc(F)ccc43)ccnn2c1C(N)=O [Compound 108, 2-(methoxymethyl)-N8-[(4S)-7-fluorochroman-4-yl]imidazo[1,2-b]pyridazine-3,8-dicarboxamide] | > 7.30
CCCc1nn2c(C(=O)NC3Cc4ccccc4C3)ccnc2c1C(N)=O [Compound 139, N7-indan-2-yl-2-propyl-pyrazolo[1,5-a]pyrimidine-3,7-dicarboxamide] | > 7.30
COCc1nn2c(C(=O)NCc3ccc(F)cc3F)ccnc2c1C(N)=O [Compound 83, N7-[(2,4-difluorophenyl)methyl]-2-(methoxymethyl)pyrazolo[1,5-a]pyrimidine-3,7-dicarboxamide] | > 7.30
COCc1nn2c(C(=O)N[C@H]3COc4c3ccc(F)c4F)ccnc2c1C(N)=O [Compound 119, 2-(methoxymethyl)-N7-[(3R)-6,7-difluoro-2,3-dihydrobenzofuran-3-yl]pyrazolo[1,5-a]pyrimidine-3,7-dicarboxamide] | > 7.30
[2H]C([2H])([2H])OCc1nn2c(C(=O)NC3Cc4cccnc4C3)ccnc2c1C(N)=O (centres unmarked) [Compound 160, N7-(6,7-dihydro-5H-cyclopenta[b]pyridin-6-yl)-2-(trideuteriomethoxymethyl)pyrazolo[1,5-a]pyrimidine-3,7-dicarboxamide] | > 7.30
COc1ccc2[nH]c(C(C)NC(=O)c3ccnc4c(C(N)=O)cnn34)nc2c1 (centres unmarked) [Compound 98, N7-[1-(5-methoxy-1H-1,3-benzodiazol-2-yl)ethyl]pyrazolo[1,5-a]pyrimidine-3,7-dicarboxamide] | 4.30 to 5.30
COCc1nn2c(C(=O)NCC3CC3(C)C)ccnc2c1C(N)=O (centres unmarked) [Compound 77, N7-[(2,2-dimethylcyclopropyl)methyl]-2-(methoxymethyl)pyrazolo[1,5-a]pyrimidine-3,7-dicarboxamide] | 5.30 to 6.30
COCc1nn2c(C(=O)NC3Cc4cccc(F)c4C3)ccnc2c1C(N)=O (centres unmarked) [Compound 91, N7-(4-fluoroindan-2-yl)-2-(methoxymethyl)pyrazolo[1,5-a]pyrimidine-3,7-dicarboxamide] | > 7.30
COCc1nn2c(C(=O)NC3CCC(F)(F)c4ccccc43)ccnc2c1C(N)=O (centres unmarked) [Compound 116, N7-(4,4-difluorotetralin-1-yl)-2-(methoxymethyl)pyrazolo[1,5-a]pyrimidine-3,7-dicarboxamide] | > 7.30
COCc1nc2c(C(=O)NC3Cc4ccccc4C3)ccnn2c1C(N)=O [Compound 56, N8-indan-2-yl-2-(methoxymethyl)imidazo[1,2-b]pyridazine-3,8-dicarboxamide] | > 7.30
NC(=O)c1c(C2CC2)nn2c(C(=O)NC3CC(F)(F)c4ccccc43)ccnc12 (centres unmarked) [Compound 112, 2-cyclopropyl-N7-(3,3-difluoroindan-1-yl)pyrazolo[1,5-a]pyrimidine-3,7-dicarboxamide] | > 7.30
NC(=O)c1c(C2CC2)nc2c(C(=O)NC3Cc4cccnc4C3)ccnn12 (centres unmarked) [Compound 163, 2-cyclopropyl-N8-(6,7-dihydro-5H-cyclopenta[b]pyridin-6-yl) imidazo[1,2-b]pyridazine-3,8-dicarboxamide] | > 7.30
COCc1nn2c(C(=O)NCc3ccc4c(c3)CCO4)ccnc2c1C(N)=O [Compound 67, N7-(2,3-dihydrobenzofuran-5-ylmethyl)-2-(methoxymethyl)pyrazolo[1,5-a]pyrimidine-3,7-dicarboxamide] | 6.30 to 7.30
COCc1nc2c(C(=O)NC3Cc4ccccc43)ccnn2c1C(N)=O (centres unmarked) [Compound 106, N8-(7-bicyclo[4.2.0]octa-1,3,5-trienyl)-2-(methoxymethyl)imidazo[1,2-b]pyridazine-3,8-dicarboxamide] | > 7.30

Now from value to compound:

pIC50 | SMILES
> 7.30 | COCc1nn2c(C(=O)NC3CCC(F)(F)c4ccccc43)ccnc2c1C(N)=O (single isomer, unassigned) [Compound 175, N7-[-4,4-difluorotetralin-1-yl]-2-(methoxymethyl)pyrazolo[1,5-a]pyrimidine-3,7-dicarboxamide]
> 7.30 | CCOCc1nn2c(C(=O)NC3Cc4ccccc4C3)ccnc2c1C(N)=O [Compound 202, 2-(ethoxymethyl)-N7-indan-2-yl-pyrazolo[1,5-a]pyrimidine-3,7-dicarboxamide]
> 7.30 | COCc1nn2c(C(=O)N[C@H]3CCS(=O)(=O)c4ccccc43)ccnc2c1C(N)=O (single isomer, unassigned) [Compound 234]
> 7.30 | CC(C)c1nn2c(C(=O)NC3CCS(=O)(=O)c4ccccc43)ccnc2c1C(N)=O (centres unmarked) [Compound 230, N7-(1,1-dioxo-3,4-dihydro-2H-thiochromen-4-yl)-2-isopropyl-pyrazolo[1,5-a]pyrimidine-3,7-dicarboxamide]
> 7.30 | COCc1nn2c(C(=O)NC3CCC(F)(F)CC3)cc(C)nc2c1C(N)=O [Compound 240, N7-(4,4-difluorocyclohexyl)-2-(methoxymethyl)-5-methyl-pyrazolo[1,5-a]pyrimidine-3,7-dicarboxamide]
> 7.30 | COCc1nn2c(C(=O)NC3COc4c(F)cc(F)cc43)ccnc2c1C(N)=O (centres unmarked) [Compound 191, N7-(5,7-difluoro-2,3-dihydrobenzofuran-3-yl)-2-(methoxymethyl)pyrazolo[1,5-a]pyrimidine-3,7-dicarboxamide]
> 7.30 | COCc1nn2c(C(=O)NC3CC(F)(F)c4ccccc43)ccnc2c1C(N)=O (single isomer, unassigned) [Compound 173, N7-(3,3-difluoroindan-1-yl)-2-(methoxymethyl)pyrazolo[1,5-a]pyrimidine-3,7-dicarboxamide]
> 7.30 | COCc1nn2c(C(=O)NC3Cc4ccccc4C3)cc(C)nc2c1C(N)=O [Compound 227, N7-indan-2-yl-2-(methoxymethyl)-5-methyl-pyrazolo[1,5-a]pyrimidine-3,7-dicarboxamide]
6.30 to 7.30 | NC(=O)c1c(CO)nn2c(C(=O)NC3Cc4ccccc4C3)ccnc12 [Compound 204, 2-(hydroxymethyl)-N7-indan-2-yl-pyrazolo[1,5-a]pyrimidine-3,7-dicarboxamide]
